According to ChEMBL document CHEMBL1201862, “PubChem BioAssay data set” (2004):
Activity calls are given as the source filed them.

What was measured:
[1] = target: T1, Short transient receptor potential channel 4 (Mus musculus, UniProt Q9QUQ5); experiment: block of DAMGO-driven TRPC4 calcium entry – cell-based, HEK293 TRPC4/mu-opioid, Fluo-4 calcium, dose response (AID 434942); type: functional;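 note: potency of inhibitors blocking the TRPC4 calcium response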
T1 sequence (Q9QUQ5 whole entry): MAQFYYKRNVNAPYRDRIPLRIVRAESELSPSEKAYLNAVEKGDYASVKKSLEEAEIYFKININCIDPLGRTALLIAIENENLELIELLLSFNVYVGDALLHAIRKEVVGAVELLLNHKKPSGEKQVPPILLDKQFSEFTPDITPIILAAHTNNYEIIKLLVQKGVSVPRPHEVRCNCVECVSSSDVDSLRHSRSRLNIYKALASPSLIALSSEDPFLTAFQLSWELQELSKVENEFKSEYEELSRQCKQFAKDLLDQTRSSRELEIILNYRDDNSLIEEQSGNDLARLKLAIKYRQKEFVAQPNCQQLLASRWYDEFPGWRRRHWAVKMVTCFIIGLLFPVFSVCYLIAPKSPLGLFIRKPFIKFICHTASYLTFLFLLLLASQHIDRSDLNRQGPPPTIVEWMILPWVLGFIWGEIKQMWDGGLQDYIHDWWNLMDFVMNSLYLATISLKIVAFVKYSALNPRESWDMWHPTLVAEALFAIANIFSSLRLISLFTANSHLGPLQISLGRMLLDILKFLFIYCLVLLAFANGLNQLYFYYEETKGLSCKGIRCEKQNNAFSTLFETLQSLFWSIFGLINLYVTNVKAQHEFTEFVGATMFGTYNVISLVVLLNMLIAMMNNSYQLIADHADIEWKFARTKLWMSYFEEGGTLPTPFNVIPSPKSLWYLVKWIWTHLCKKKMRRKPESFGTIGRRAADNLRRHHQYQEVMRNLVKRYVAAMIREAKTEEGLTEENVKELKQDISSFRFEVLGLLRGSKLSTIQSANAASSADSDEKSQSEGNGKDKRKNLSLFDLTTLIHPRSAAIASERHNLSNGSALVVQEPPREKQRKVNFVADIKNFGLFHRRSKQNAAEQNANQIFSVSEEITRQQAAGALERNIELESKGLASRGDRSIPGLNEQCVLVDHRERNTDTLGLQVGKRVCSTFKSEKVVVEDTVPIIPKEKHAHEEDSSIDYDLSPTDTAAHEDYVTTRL

[2] = target: T2, Calpain-2 catalytic subunit (Sus scrofa, UniProt P43367); experiment: m-calpain protease blockers, concentration series – biochemical, fluorogenic peptide substrate, dose response (AID 1420); type: functional
T2 sequence (P43367 whole entry): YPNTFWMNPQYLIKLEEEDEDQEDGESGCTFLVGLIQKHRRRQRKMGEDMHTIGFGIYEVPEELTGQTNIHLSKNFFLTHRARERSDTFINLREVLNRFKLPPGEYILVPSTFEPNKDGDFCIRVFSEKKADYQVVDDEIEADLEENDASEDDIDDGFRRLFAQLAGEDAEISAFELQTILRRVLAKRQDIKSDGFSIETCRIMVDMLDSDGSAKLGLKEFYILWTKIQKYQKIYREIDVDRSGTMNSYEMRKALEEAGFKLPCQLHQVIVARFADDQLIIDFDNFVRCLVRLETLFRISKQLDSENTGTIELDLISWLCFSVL

[3] = cells; type: functional, cell-based
[4] = cells; type: functional, cell-based; remark: listed apart in the source
[5] = target: Cytochrome P450 2C9 (Homo sapiens, UniProt P11712); settings: Potency
Cytochrome P450 2C9, sequence (P11712 whole entry): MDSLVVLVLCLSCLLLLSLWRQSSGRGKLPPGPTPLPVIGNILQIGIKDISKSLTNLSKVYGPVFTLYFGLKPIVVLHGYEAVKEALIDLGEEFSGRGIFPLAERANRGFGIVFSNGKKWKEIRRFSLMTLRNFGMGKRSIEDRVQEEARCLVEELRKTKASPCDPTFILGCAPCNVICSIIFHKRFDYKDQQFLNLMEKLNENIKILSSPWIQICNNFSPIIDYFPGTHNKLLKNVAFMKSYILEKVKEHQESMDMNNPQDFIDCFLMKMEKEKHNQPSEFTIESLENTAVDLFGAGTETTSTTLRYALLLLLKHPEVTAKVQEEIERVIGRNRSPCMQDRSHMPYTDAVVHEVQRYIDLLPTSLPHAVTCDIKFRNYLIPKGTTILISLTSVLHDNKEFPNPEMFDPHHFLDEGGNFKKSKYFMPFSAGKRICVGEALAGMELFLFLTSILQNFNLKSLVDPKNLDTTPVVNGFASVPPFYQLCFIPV

[6] = target: T3, Mannose-6-phosphate isomerase (Homo sapiens, UniProt P34949); experiment: MPI inhibition at elevated mannose 6-phosphate – biochemical, fluorescence intensity, high mannose 6-phosphate, primary screen (AID 1220)
T3 sequence (P34949 whole entry): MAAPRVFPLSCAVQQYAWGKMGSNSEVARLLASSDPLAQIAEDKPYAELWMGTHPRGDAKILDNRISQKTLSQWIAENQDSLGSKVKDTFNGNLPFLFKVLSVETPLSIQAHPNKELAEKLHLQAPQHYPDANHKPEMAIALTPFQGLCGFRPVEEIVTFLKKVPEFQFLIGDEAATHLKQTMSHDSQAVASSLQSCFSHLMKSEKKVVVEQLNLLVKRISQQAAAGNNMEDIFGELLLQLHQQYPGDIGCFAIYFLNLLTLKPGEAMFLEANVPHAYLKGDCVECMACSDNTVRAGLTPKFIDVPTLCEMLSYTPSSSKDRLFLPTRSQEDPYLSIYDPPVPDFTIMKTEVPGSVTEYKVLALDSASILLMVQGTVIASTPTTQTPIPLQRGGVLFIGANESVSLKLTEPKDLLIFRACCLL

[7] = target: Nonstructural protein 1 (Influenza A virus, UniProt Q194T2); type: functional, Influenza A virus (A/California/07/2009(H1N1))
Nonstructural protein 1, sequence (Q194T2 whole entry): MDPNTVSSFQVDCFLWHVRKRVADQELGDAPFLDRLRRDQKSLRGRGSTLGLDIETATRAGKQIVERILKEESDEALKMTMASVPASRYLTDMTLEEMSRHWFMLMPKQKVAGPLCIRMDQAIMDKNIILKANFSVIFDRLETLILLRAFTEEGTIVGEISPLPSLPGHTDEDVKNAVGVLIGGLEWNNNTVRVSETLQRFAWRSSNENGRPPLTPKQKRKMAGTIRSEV

[8] = target: Large T antigen (Simian virus 40, UniProt P03070); type: functional, Betapolyomavirus macacae;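 note: Confirmatory-stage PubChem screen for compounds that inhibit SV40 T antigen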
Large T antigen, sequence (P03070 whole entry): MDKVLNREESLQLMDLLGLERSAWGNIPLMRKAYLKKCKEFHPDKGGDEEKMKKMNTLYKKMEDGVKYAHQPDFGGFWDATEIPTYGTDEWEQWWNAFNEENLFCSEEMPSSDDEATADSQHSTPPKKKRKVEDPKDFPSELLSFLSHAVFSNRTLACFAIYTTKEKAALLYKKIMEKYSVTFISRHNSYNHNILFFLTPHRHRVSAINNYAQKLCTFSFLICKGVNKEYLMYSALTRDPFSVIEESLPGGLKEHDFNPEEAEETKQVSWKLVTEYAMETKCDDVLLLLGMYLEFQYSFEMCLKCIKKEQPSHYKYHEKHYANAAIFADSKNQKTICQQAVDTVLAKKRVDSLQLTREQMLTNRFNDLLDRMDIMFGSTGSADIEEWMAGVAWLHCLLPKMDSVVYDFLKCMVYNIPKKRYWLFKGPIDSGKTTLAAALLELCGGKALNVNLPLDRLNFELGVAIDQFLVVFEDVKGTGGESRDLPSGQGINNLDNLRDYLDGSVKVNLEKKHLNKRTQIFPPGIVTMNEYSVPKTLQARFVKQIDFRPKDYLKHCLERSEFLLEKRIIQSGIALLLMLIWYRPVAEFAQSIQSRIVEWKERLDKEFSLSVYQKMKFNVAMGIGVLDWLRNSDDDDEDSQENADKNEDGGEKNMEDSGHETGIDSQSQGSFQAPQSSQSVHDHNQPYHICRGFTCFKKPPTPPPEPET

[9] = target: FAD-linked sulfhydryl oxidase ALR (Homo sapiens, UniProt P55789); experiment: ALR-catalysed DTT oxidation blockers – biochemical, H2O2 detection, luminescence, cherry-pick, dose response (AID 493248)
FAD-linked sulfhydryl oxidase ALR, sequence (P55789 whole entry): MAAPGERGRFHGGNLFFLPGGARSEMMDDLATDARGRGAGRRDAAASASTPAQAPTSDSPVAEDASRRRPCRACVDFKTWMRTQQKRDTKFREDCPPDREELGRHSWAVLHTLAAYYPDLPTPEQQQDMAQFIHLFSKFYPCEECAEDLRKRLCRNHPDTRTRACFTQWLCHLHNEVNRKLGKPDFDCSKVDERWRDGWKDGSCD

[10] = Luminescence Cell-Based Dose Retest to Confirm Inhibitors of Cancer Stem Cells. [Related pubchem assays (depositor defined):AID2717, AID2721]; type: functional; settings: Homo sapiens
[11] = viability loss of HPDE-C7K cells – cell-based, fluorescence, HTS, primary screen (AID 431); type: functional; settings: Homo sapiens
[12] = HPDE-C7 pancreatic duct cell viability loss – fluorescence, HTS (AID 430); type: functional, cell-based; settings: Homo sapiens
[13] = target: T4, Ubiquitin-conjugating enzyme E2 N (Homo sapiens, UniProt P61088); type: functional;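 note: Dose-response confirmation in a TR-FRET assay detecting UBC13-driven polyubiquitin chain formation, inhibition measured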
T4 sequence (P61088 whole entry): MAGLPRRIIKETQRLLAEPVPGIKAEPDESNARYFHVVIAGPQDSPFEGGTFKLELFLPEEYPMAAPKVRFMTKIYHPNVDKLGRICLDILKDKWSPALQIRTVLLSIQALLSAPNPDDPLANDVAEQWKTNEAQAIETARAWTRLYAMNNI

[14] = target: Cytochrome P450 3A4 (Homo sapiens, UniProt P08684); settings: Potency;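 note: confirmatory qHTS run detecting inhibitors and substrates of CYP3A4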
Cytochrome P450 3A4, sequence (P08684 whole entry): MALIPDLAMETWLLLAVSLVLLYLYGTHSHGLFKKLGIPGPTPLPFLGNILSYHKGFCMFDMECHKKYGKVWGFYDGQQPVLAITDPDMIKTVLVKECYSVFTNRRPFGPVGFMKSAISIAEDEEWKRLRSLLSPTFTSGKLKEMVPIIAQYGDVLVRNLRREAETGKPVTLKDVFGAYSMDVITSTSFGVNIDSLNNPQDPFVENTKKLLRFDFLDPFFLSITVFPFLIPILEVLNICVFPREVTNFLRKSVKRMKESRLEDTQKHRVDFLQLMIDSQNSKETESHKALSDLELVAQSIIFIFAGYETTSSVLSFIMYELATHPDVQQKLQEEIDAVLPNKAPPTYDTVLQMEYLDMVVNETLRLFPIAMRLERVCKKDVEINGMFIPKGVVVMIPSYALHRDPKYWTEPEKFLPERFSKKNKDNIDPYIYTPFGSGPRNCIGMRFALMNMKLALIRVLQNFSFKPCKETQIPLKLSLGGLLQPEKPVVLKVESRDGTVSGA

[15] = target: T5, Polyadenylate-binding protein 1 (Homo sapiens, UniProt P11940); experiment: MLLE binding blockers, Cy5 peptide tracer – biochemical, fluorescence polarization, Cy5-PAM2 peptide, secondary, miRNA deadenylation inhibitor project, dose response (AID 602260); type: functional; settings: read-out: IC50_Mean
T5 sequence (P11940 whole entry, the tested form may be a part): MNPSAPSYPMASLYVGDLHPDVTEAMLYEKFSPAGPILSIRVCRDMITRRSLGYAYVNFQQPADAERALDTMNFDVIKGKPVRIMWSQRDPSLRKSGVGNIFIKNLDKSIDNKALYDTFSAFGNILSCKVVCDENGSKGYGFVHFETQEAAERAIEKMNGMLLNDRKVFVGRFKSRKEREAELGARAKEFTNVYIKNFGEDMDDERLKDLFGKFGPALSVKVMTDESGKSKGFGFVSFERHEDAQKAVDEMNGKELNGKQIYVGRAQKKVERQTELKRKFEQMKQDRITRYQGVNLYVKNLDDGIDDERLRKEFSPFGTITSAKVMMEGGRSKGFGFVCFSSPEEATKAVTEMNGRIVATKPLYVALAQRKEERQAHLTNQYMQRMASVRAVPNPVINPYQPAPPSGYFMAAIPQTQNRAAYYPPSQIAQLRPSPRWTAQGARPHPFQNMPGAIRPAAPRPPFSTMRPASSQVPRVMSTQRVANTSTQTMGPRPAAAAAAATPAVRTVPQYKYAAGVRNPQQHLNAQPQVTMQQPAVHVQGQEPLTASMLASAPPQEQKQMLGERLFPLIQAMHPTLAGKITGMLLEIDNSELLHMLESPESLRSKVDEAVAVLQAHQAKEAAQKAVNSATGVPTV

[16] = target: T5, Polyadenylate-binding protein 1; experiment: MLLE domain peptide-binding blockers, IC50 – biochemical, fluorescence polarization, FITC-PAM2 peptide, dose response (AID 602259); type: functional; settings: read-out: IC50_Mean
[17] = test system: Vero; experiment: cells; type: functional; settings: Chlorocebus sabaeus
[18] = test system: H9c2; experiment: cells; type: functional, cell-based; settings: Rattus norvegicus, H9c2, Myocardium;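 note: confirmatory concentration-response retest of ultra-high-throughput screening hits for modulation of myocardial damage; cell death induced by hydrogen peroxide oxidative stress; compound pretreatment for 60 min then peroxide exposure for 2 h; potency is for protecting the cells against peroxide damage rather than for killing them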
[19] = test system: Streptococcus; experiment: GAS UMAA2166 growth inhibition – luminescence, BacTiterGlo, counter-screen for streptokinase expression inhibitor project, dose response (AID 1915); type: functional, organism-based;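 note: potency for reduction of bacterial viability or growth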
[20] = fluconazole-exposed Candida albicans growth modulators – fluorescence, retest, confirmation (AID 2467); type: functional, cell-based
[21] = NIH-3T3 fibroblast cytotoxicity, dose response, cytotoxicity control, cell-based, fluorescence, Alamar Blue, secondary assay (AID 2327); type: functional;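 note: NIH-3T3 mouse fibroblasts cultured with fluconazole at 8 µg/mL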
[22] = test system: Streptococcus sp. 'group A'; experiment: Streptococcus pyogenes SK(-)GAS viability under kanamycin – luminescence, BacTiterGlo, confirmation, counter-screen for streptokinase expression inhibitor project, dose response (AID 1900); type: functional, organism-based
[23] = NIH3T3 cell viability loss – ATP luminescence, mouse fibroblasts, counter-screen, dose response (AID 2010); type: functional, cell-based;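 note: cells exposed to compound for about 90 hours before reading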
[24] = Trypanosoma cruzi growth suppression in host cells – NIH3T3 host cells, beta-gal luminescence, confirmation (AID 2044); type: functional, cell-based;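 note: intracellular parasites grown in NIH/3T3 mouse fibroblasts as host cells; luminescent beta-galactosidase reporter signal from transgenic T. cruzi replicating inside host cells; inhibitors lower the luminescence signal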
[25] = P. falciparum Dd2 growth inhibitors, dose response, SYBR Green, cherry-picked samples (AID 1159567); type: functional, cell-based
[26] = toxicity to human hepatoma HepG2 cells – cell-based, cherry-picked samples, cytotoxicity control, dose response (AID 1159577); type: functional
[27] = target: T6, Coagulation factor XII (Homo sapiens, UniProt P00748); type: functional;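 note: activated factor XIIa alpha cleaving a fluorogenic AMC peptide substrate; inhibitor potency from loss of enzyme activity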
T6 sequence (P00748 whole entry): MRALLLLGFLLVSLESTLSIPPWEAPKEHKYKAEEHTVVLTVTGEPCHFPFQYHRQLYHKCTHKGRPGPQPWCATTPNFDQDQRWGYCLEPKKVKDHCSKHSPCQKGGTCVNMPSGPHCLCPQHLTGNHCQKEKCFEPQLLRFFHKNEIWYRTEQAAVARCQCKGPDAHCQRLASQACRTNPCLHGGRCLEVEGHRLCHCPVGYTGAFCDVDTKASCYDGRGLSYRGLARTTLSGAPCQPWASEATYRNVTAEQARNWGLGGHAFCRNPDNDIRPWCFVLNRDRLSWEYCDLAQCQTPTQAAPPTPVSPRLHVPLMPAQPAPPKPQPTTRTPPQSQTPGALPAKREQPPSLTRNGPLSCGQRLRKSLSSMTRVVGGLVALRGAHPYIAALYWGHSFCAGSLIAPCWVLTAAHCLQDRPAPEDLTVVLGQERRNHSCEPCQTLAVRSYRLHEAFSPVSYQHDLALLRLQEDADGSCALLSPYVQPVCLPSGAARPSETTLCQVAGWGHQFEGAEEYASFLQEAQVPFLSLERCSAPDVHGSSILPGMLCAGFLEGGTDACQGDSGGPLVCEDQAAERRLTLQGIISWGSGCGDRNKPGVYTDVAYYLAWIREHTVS

C/C(N)=C(/C#N)C(=O)COC(=O)CC12CC3CC(CC(C3)C1)C2
EC50 [1]: 1.5 µM (active)
IC50 [2]: 12 µM (not active)

CC1CN(c2nc3ccccn3c(=O)c2/C=C(\C#N)C(=O)N2CCOCC2)CC(C)O1 (stereo unspecified)
EC50 [3]: > 350 µM (not active)
EC50 [4]: > 350 µM (not active)

NCCC[C@@H](CC(=O)N[C@@H]1CCCC[C@H]1C(=O)N[C@H](CC(=O)N[C@@H](CCC(=O)O)CC(=O)O)Cc1c[nH]c2ccccc12)NC(=O)C[C@H](CO)NC(=O)[C@@H]1CCCC[C@H]1N
AC50 [5]: 31.6 µM (inconclusive)

CC(C)C(NC(=O)c1ccc(C(C)(C)C)cc1)C(=O)NCC(c1ccccc1)N(C)C (stereo unspecified)
EC50 [1]: 0.168 µM (active)

CC(C)(C)Nc1c([N+](=O)[O-])ccc2c1=NC1(CCCCC1)[N+]=2[O-]
IC50 [6]: > 50 µM (not active)
IC50 [7]: 18.1 µM (active)

CCN(CC)c1ccc(N/C=C2/C(=O)NC(=O)N(c3ccccc3C)C2=O)cc1
IC50 [8]: > 100 µM (active)
AC50 [9]: 1.46 µM (active)

N#Cc1ccsc1NC(=O)CN1CCN(c2ccc(O)cc2)CC1
IC50 [8]: 6.44 µM (active)

Cc1nc2sccn2c(=O)c1CCN1CCC(=C(c2ccc(F)cc2)c2ccc(F)cc2)CC1 [RITANSERIN]
AC50 [5]: 25.1 µM (inconclusive)
AC50 [10]: 6.23 µM (active)
EC50 [11]: > 20 µM (not active)
EC50 [12]: > 20 µM (not active)
IC50 [13]: > 20 µM (inactive)
AC50 [14]: 20 µM (inconclusive)

COc1cc2c(cc1OC)C(C)N(S(=O)(=O)c1ccc(Cl)nc1)CC2 (stereo unspecified)
EC50 [3]: > 350 µM (not active)
EC50 [4]: > 350 µM (not active)

COc1ccc(-c2ccc(C(=O)O)o2)c([N+](=O)[O-])c1
IC50 [6]: > 50 µM (not active)

N#Cc1cc2c(nc1S)CCCCCC2
IC50 [15]: > 66 µM (inactive)
IC50 [6]: > 50 µM (not active)
IC50 [16]: > 66 µM (inactive)

O=C1CCCC2=C1C(Cc1ccccc1)C1=C(CCCC1=O)O2
EC50 [3]: > 350 µM (not active)
EC50 [4]: > 350 µM (not active)

COc1ccc(NC2CCCN(C(=O)c3cccc(C(F)(F)F)c3)C2)cc1OC (stereo unspecified)
IC50 [8]: 44.1 µM (active)

O=C(c1ccc(F)cc1)N(Cc1cccs1)C1CCS(=O)(=O)C1 (stereo unspecified)
EC50 [3]: > 350 µM (not active)
EC50 [4]: > 350 µM (not active)

COc1ccc(NC(=S)Nc2ccc3nccnc3c2)cc1
IC50 [6]: > 50 µM (not active)

COc1cc(NS(=O)(=O)c2ccc3ccccc3c2)c2ncccc2c1
EC50 [1]: 0.668 µM (active)
CC50 [17]: > 25 µM (active)
IC50 [18]: > 79 µM (inactive)
EC50 [19]: 7.28 µM (active)
EC50 [20]: 3.98 µM (active)
EC50 [21]: > 160 µM (inactive)
EC50 [22]: 0.412 µM (active)
EC50 [23]: 1.09 µM (active)
EC50 [24]: 0.342 µM (active)

OC[C@@H]1[C@H](c2ccc(C3=CCCCC3)cc2)[C@@H](CNC2CCCC2)N1CC1CC1
AC50 [25]: 1.61 µM (active)
AC50 [26]: 21.9 µM (active)

Cc1onc(-c2c(F)cccc2Cl)c1C(=O)N(C)CC(=O)Nc1cccc(F)c1
EC50 [1]: 2.11 µM (active)

COc1ccc(S(=O)(=O)N2CCCC2C(=O)Nn2cnnc2)cc1 (stereo unspecified)
IC50 [27]: > 50 µM (inactive)

C=CCOC(=O)C(C(C)=O)C(NC(=O)OC)c1cccc(F)c1 (stereo unspecified)
AC50 [5]: 1 µM (inconclusive)

N=C(NOC(=O)c1ccc(Cl)c([N+](=O)[O-])c1)c1ccccn1
IC50 [27]: > 50 µM (inactive)

Cc1cc(C)nc(N=C(N)N(Cc2ccccc2)Cc2ccccc2)n1
EC50 [1]: 1.5 µM (active)
IC50 [2]: > 50 µM (not active)
